Results: EPA's ToxRefDB 2

Assays:
rat [1] = conditions: Subchronic oral toxicity in rodents, fischer, Gavage/Intubation, dose end: 13 week, group: systemic
mouse [2] = conditions: Subchronic oral toxicity in rodents, b6c3f1, Gavage/Intubation, dose end: 13 week, group: systemic
mouse [3] = conditions: Carcinogenicity, b6c3f1, Oral, Gavage/Intubation, dose end: 102 week, group: systemic
rat [4] = conditions: Carcinogenicity, fischer, Oral, Gavage/Intubation, dose end: 102 week, group: systemic
rat [5] = conditions: Multigenerational reproductive toxicity study, wistar, Oral, Feed, dose end: 2 generation
dog = conditions: Chronic toxicity, beagle, Oral, Capsule, dose end: 52 week, group: systemic
mouse [6] = conditions: Prenatal developmental toxicity study, cd1, Oral, Gavage/Intubation, dose end: 16 GD, group: maternal
rat [7] = conditions: Subchronic oral toxicity in rodents, wistar, Feed, dose end: 3 month, group: systemic
mouse [8] = conditions: Prenatal developmental toxicity study, cd1, Oral, Gavage/Intubation, dose end: 16 GD
rat [9] = conditions: Subchronic oral toxicity in rodents, wistar, Feed, dose end: 6 month, group: systemic
rat [10] = conditions: Combined chronic toxicity/carcinogenicity, other, Oral, Feed, dose end: 104 week, group: systemic
rat [11] = conditions: Peri- and post-natal toxicity study (Segment III), wistar, Oral, [Not Specified], dose end: 21 PND
mouse [12] = conditions: Subchronic oral toxicity in rodents, Feed, dose end: 90 day, group: systemic, systemic / pathology microscopic / liver / clear cell focus + systemic / pathology microscopic / liver / [other] + systemic / clinical …
mouse [13] = conditions: Combined chronic toxicity/carcinogenicity; other; Oral; Feed; dose end: 101 week; group: systemic; systemic / pathology microscopic / liver / enlarged vacuoles + systemic / pathology microscopic / liver / focal cellular change + systemic…
rat [14] = conditions: Sub-acute repeat dose toxicity; Oral; Gavage/Intubation; dose end: 14 day; group: systemic; systemic / in life observation / clinical signs / ataxia + systemic / in life observation / clinical signs / urine staining - perineum + …
primate = conditions: Subchronic oral toxicity in nonrodent, Gavage/Intubation, dose end: 91 day, group: systemic, systemic / in life observation / body weight / body weight + systemic / in life observation / clinical signs / [other] + systemic / in life …
rat [15] = conditions: Fertility (Segment I), Oral, Gavage/Intubation, dose end: 1 generation, group: parental
rabbit = conditions: Prenatal developmental toxicity study; Oral; Gavage/Intubation; dose end: 19 GD; group: maternal; systemic / in life observation / clinical signs / abnormal feces + systemic / in life observation / clinical signs / red or crusty deposits …
rat [16] = conditions: Sub-acute repeat dose toxicity; wistar; Oral; Gavage/Intubation; dose end: 7 day; group: systemic; systemic / clinical chemistry / [other] / [other] + systemic / pathology microscopic / blood / vasculitis
[17] = systemic / in life observation / body weight / body weight + systemic / in life observation / mortality / mortality + systemic / pathology …
[18] = systemic / in life observation / body weight / body weight + systemic / pathology microscopic / liver / granuloma + systemic / pathology …
[19] = systemic / pathology microscopic / kidney / cytomegaly + systemic / pathology microscopic / thyroid gland / hyperplasia
[20] = systemic / pathology microscopic / kidney / cytomegaly + systemic / pathology microscopic / thyroid gland / hyperplasia + systemic / …
[21] = systemic / pathology microscopic / intestine large / adenocarcinoma + systemic / pathology microscopic / intestine large / polyp adenomatous…
[22] = systemic / pathology microscopic / kidney / cytomegaly + systemic / pathology microscopic / liver / necrosis
[23] = group: offspring, developmental / offspring survival late / viability index / viability index + developmental / offspring survival late / lactation index / …
[24] = group: offspring, developmental / offspring survival late / viability index / viability index + reproductive / offspring survival early / dead fetuses / dead …
[25] = group: parental, systemic / in life observation / body weight / body weight gain
[26] = group: parental, systemic / in life observation / body weight / body weight gain + systemic / in life observation / body weight / body weight + systemic / …
[27] = group: reproductive, reproductive / reproductive performance / gestational length / gestational length + reproductive / reproductive performance / dystocia / …
[28] = systemic / clinical chemistry / alkaline phosphatase (alp/alk) / alkaline phosphatase (alp/alk) + systemic / in life observation / body …
[29] = systemic / in life observation / body weight / body weight gain + systemic / in life observation / body weight / dam weight + systemic / in …
[30] = systemic / organ weight / adrenal gland / absolute + systemic / organ weight / adrenal gland / relative to body weight + systemic / …
[31] = group: developmental, developmental / developmental malformation / bone / supernumerary
[32] = group: developmental, developmental / developmental malformation / bone / supernumerary + developmental / developmental malformation / bone / [other] + …
[33] = group: maternal, reproductive / reproductive performance / estrous cycle / corpora lutea
[34] = systemic / clinical chemistry / glucose / glucose
[35] = systemic / clinical chemistry / glucose / glucose + systemic / clinical chemistry / lactic acid dehydrogenase (ldh) / lactic acid …
[36] = systemic / pathology microscopic / thyroid gland / neoplasm nos + systemic / in life observation / body weight / body weight + systemic / in…
[37] = group: developmental, developmental / offspring survival late / viability index / viability index
[38] = group: maternal, reproductive / offspring survival early / dead fetuses / dead fetuses + reproductive / offspring survival early / litter size / litter size
[39] = group: parental, systemic / in life observation / food consumption / food consumption + systemic / in life observation / mortality / mortality
[40] = systemic / in life observation / clinical signs / abnormal feces + systemic / in life observation / clinical signs / convulsions + systemic…
[41] = systemic / in life observation / clinical signs / convulsions + systemic / in life observation / clinical signs / salivation

ClC(Cl)Br [Bromodichloromethane]
LEL (rat [1]; systemic / in life observation / body weight / body weight): 150 mg/kg/day | LOAEL (rat [1]; [17]): > 300 mg/kg/day | NEL (rat [1]; [17]): 75 mg/kg/day | NOAEL (rat [1]; [17]): ≥ 300 mg/kg/day | LEL (mouse [2]; systemic / in life observation / body weight / body weight + systemic / pathology microscopic / kidney / necrosis): 100 mg/kg/day | LOAEL (mouse [2]; [18]): > 400 mg/kg/day | NOAEL (mouse [2]; [18]): ≥ 400 mg/kg/day | LOAEL (mouse [3]; [19]): 25 mg/kg/day | NOAEL (mouse [3]; [19]): < 25 mg/kg/day | LEL (mouse [3]; [20]): 25 mg/kg/day | NEL (mouse [3]; [20]): < 25 mg/kg/day | LOAEL (rat [4]; [21]): > 100 mg/kg/day | NOAEL (rat [4]; [21]): ≥ 100 mg/kg/day | LEL (rat [4]; [22]): 50 mg/kg/day | NEL (rat [4]; [22]): < 50 mg/kg/day

C=CCOC(Cn1ccnc1)c1ccc(Cl)cc1Cl (stereo not drawn) [Imazalil]
LEL (rat [5]; [23]): 5 mg/kg/day | NEL (rat [5]; [23]): < 5 mg/kg/day | LOAEL (rat [5]; [24]): 80 mg/kg/day | NOAEL (rat [5]; [24]): 20 mg/kg/day | NEL (rat [5]; [25]): 20 mg/kg/day | NOAEL (rat [5]; [25]): 20 mg/kg/day | LEL (rat [5]; [26]): 80 mg/kg/day | LOAEL (rat [5]; [26]): 80 mg/kg/day | LOAEL (rat [5]; group: reproductive, reproductive / reproductive performance / gestational length / gestational length): 80 mg/kg/day | LEL (rat [5]; [27]): 80 mg/kg/day | NEL (rat [5]; [27]): 20 mg/kg/day | NOAEL (rat [5]; [27]): 20 mg/kg/day | LOAEL (dog; [28]): 20 mg/kg/day | NEL (dog; [28]): 1.25 mg/kg/day | NOAEL (dog; [28]): 2.5 mg/kg/day | LEL (dog; systemic / organ weight / liver / absolute + systemic / organ weight / liver / relative to body weight): 2.5 mg/kg/day | LOAEL (mouse [6]; systemic / in life observation / body weight / body weight gain): 80 mg/kg/day | LEL (mouse [6]; [29]): 80 mg/kg/day | NEL (mouse [6]; [29]): 40 mg/kg/day | NOAEL (mouse [6]; [29]): 40 mg/kg/day | LOAEL (rat [7]; [30]): 37.9 mg/kg/day | NOAEL (rat [7]; [30]): 18.7 mg/kg/day | NEL (rat [7]; systemic / organ weight / liver / absolute + systemic / organ weight / adrenal gland / absolute + systemic / organ weight / adrenal gland / …): 90.1 mg/kg/day | LEL (mouse [8]; [31]): 80 mg/kg/day | LOAEL (mouse [8]; [31]): 80 mg/kg/day | NEL (mouse [8]; [32]): 40 mg/kg/day | NOAEL (mouse [8]; [32]): 40 mg/kg/day | LEL (mouse [8]; [33]): 10 mg/kg/day | NEL (mouse [8]; [33]): < 10 mg/kg/day | LOAEL (mouse [8]; group: maternal, systemic / in life observation / body weight / body weight gain + systemic / in life observation / food consumption / food consumption): 40 mg/kg/day | NOAEL (mouse [8]; group: maternal, systemic / in life observation / body weight / body weight gain + systemic / in life observation / food consumption / food consumption + …): 10 mg/kg/day | LEL (rat [9]; [34]): 1.25 mg/kg/day | NEL (rat [9]; [34]): < 1.25 mg/kg/day | LOAEL (rat [9]; [35]): 20 mg/kg/day | NOAEL (rat [9]; [35]): 5 mg/kg/day | LEL (rat [10]; systemic / pathology microscopic / liver / pigmentation): 14.6 mg/kg/day | NEL (rat [10]; systemic / pathology microscopic / liver / pigmentation + systemic / clinical chemistry / alanine aminotransferase (alt/sgpt) / alanine …): 3.6 mg/kg/day | LOAEL (rat [10]; [36]): 65.8 mg/kg/day | NOAEL (rat [10]; [36]): 10.8 mg/kg/day | LEL (rat [11]; [37]): 80 mg/kg/day | LOAEL (rat [11]; [37]): > 80 mg/kg/day | NEL (rat [11]; [37]): 20 mg/kg/day | NOAEL (rat [11]; [37]): ≥ 80 mg/kg/day | LEL (rat [11]; [38]): 80 mg/kg/day | LOAEL (rat [11]; [38]): > 80 mg/kg/day | NEL (rat [11]; [38]): 20 mg/kg/day | NOAEL (rat [11]; [38]): ≥ 80 mg/kg/day | LEL (rat [11]; [39]): 80 mg/kg/day | LOAEL (rat [11]; [39]): > 80 mg/kg/day | NEL (rat [11]; [39]): 20 mg/kg/day | NOAEL (rat [11]; [39]): ≥ 80 mg/kg/day | LEL (mouse [12]): 38.6 mg/kg/day | LOAEL (mouse [12]): 38.6 mg/kg/day | NEL (mouse [12]): 9.5 mg/kg/day | NOAEL (mouse [12]): 9.5 mg/kg/day | LEL (mouse [13]): 28 mg/kg/day | LOAEL (mouse [13]): 28 mg/kg/day | NEL (mouse [13]): 6.67 mg/kg/day | NOAEL (mouse [13]): 6.67 mg/kg/day

Cc1cc2c3c(c1)C(c1ccccc1)=N[C@@H](NC(=O)c1ccncc1)C(=O)N3CC2 [CI-1018]
LEL (rat [14]): 1000 mg/kg/day | LOAEL (rat [14]): > 1000 mg/kg/day | NEL (rat [14]): 300 mg/kg/day | NOAEL (rat [14]): ≥ 1000 mg/kg/day | LEL (primate): 740 mg/kg/day | LOAEL (primate): > 740 mg/kg/day | NEL (primate): < 740 mg/kg/day | NOAEL (primate): ≥ 740 mg/kg/day | LOAEL (rat [15]; [40]): > 300 mg/kg/day | NOAEL (rat [15]; [40]): ≥ 300 mg/kg/day | LEL (rat [15]; [41]): 30 mg/kg/day | NEL (rat [15]; [41]): < 30 mg/kg/day | LOAEL (rabbit): > 100 mg/kg/day | NEL (rabbit): 10 mg/kg/day | NOAEL (rabbit): ≥ 100 mg/kg/day | LEL (rat [16]): 375 mg/kg/day | LOAEL (rat [16]): > 750 mg/kg/day | NEL (rat [16]): 75 mg/kg/day | NOAEL (rat [16]): ≥ 750 mg/kg/day
